Reference: patent US20090298055A1, “PRODUCTION OF PROTEINS” (Applied Research Systems ARS Holding S.A., priority 2004, published 2009)
Entries after “also recorded” stand apart in the source; their conditions may differ.

Assays:
Type in all cases: cell-based, Chinese hamster
[1] = system: parental CHO AA8 C5 cells (RFC deficient); assay: MTX growth inhibition assay; details: Cricetulus griseus, 72 h, 3 days
Procedure: (§1) Cell growth inhibition by antifolates—For antifolate cell growth inhibition, cells (10^4/well) were seeded in 24-well plates in the respective growth medium (AA8 and derivatives in RPMI+10% FCS, and CHO-S cells in CD-CHO) containing various concentrations of MTX or the lipophilic antifolates, trimeterxate (Dr. David Fry, Warner-Lambert, Parke-Davis, Detroit, Mich.) and incubated for 3 days at 37° C. Thereafter, cells were detached by trypsinization and the number of viable cells was determined using trypan blue exclusion. The 50% inhibitory concentration (IC50) is defined as the drug concentration at which cell growth is inhibited by 50% relative to untreated controls.
(§2) Cell growth assays and inhibition by antifolates—as described in Example 2, hereinabove.

[2] = system: hRFC and hRFC-HA CHO AA8 C5R0.15 transfectants; assay: MTX growth inhibition assay
Procedure: as §1, §2

[3] = system: CHO-S-R0.04 cells (selected in 40 nM MTX); assay: [3H]-MTX transport assay; details: 2 μM [3H]-MTX, 3 minutes
Procedure: (§3) [^3H]-MTX transport—In order to determine the ability of the antifolate-resistant clones to take up antifolates the influx rates of [^3H]-MTX were measured and compared to the control CHO AA8 cells. Cells (2×10^7) from the mid-log phase of growth were washed three times in transport buffer consisting of HEPES-buffered saline solution (HBSS, Rothem et al., 2002) and incubated for 3 minutes at 37° C. in the presence of HBSS (1 ml suspensions) containing 2 μM [^3H]-MTX. Transport controls contained a 500-fold excess (1 mM) of unlabeled MTX. The transport of [^3H]-MTX was stopped by the addition of 10 ml of ice-cold HBSS. The cell suspension was then centrifuged for 5 minutes at 4° C. using a centrifugation speed of 500×g, following which the cell pellet was washed twice with 10 ml of ice-cold transport buffer. The final cell pellet was suspended in water and processed for scintillation counting.

[4] = system: CHO-S-R0.12 cells (selected in 120 nM MTX); assay: [3H]-MTX transport assay; details: 2 μM [3H]-MTX, 3 minutes
Procedure: as §3

[5] = system: CHO AA8 C4 R0.15 and C5 R0.15 cell lines; assay: [3H]-MTX transport assay; details: 2 μM [3H]-MTX, 3 minutes
Procedure: as §3

[6] = system: CHO-S R0.15 cells; assay: F-MTX staining and competition with antifolates (flow cytometry); details: for concentration for complete displacement of F-MTX: 2 μM F-MTX, 3 hours competition
Procedure: (§4) F-MTX staining and competition with hydrophilic and lipophilic antifolates—Cells were seeded in 60-mm Petri dish and incubated for 8 hours at 37° C. in growth medium containing 2 μM fluorescein-MTX (F-MTX). Cells were then washed with PBS and subjected to competition with MTX and its lipophilic analogue TMQ. Following 3 hours of incubation, cells were detached by trypsinization, suspended in PBS containing 1% fetal calf serum and the residual green fluorescence per cell was determined using a flow cytometer (FACSCalibur, Becton-Dickinson) at an excitation of 488 nm and emission of 525 nm. Autofluorescence of unstained cells was routinely recorded.

[7] = system: CHO AA8 C4R0.15 and CHO AA8 C5R0.15 cells; assay: as above; details: CHO AA8 C4R0.15 and C5R0.15 cells
Procedure: as §4

[8] = system: CHO AA8 cells; assay: as above
Procedure: as §4

[9] = system: CHO-S cells; assay: as above; details: 2 μM F-MTX, 3 hours competition
Procedure: as §4

[10] = system: MTX-resistant CHO AA8 C4R0.15 and C5R0.15 cells; assay: Cell growth inhibition by lipophilic antifolates; details: data not shown
Procedure: as §1

[11] = system: CHO AA8 cells; assay: Cell growth inhibition by lipophilic antifolates; details: Cricetulus griseus; printed after 'CHO AA8 counterpart', data not shown
Procedure: as §1

[12] = system: CHO-S R0.15 cells (RFC deficient); assay: Cell growth inhibition by antifolates (trypan blue exclusion, 3 days)
Procedure: as §1

[13] = system: CHO-S cells; assay: as above; details: Cricetulus griseus, 72 h, read-out: 50% inhibition of cell growth (IC50)
Procedure: as §1

SMILES | IC50 [1] [nM] | IC50 ([2]; Cricetulus griseus, CHO-AA8, 72 h, hRFC and hRFC-HA transfectants, 3 days) [nM] | increase in MTX sensitivity ([2]; RFC and RFC-HA transfectants vs C5R0.15 cells) [fold] | loss of control CHO-S transport activity [3] [%] | loss of control CHO-S transport activity [4] [%] | loss of MTX uptake relative to control AA8 cells [5] | concentration for complete displacement of F-MTX [6] [nM] | loss of cellular F-MTX staining ([6]; competition with 100 nM MTX) | concentration required to completely displace F-MTX fluorescence [7] [µM] | concentration resulting in complete loss of F-MTX fluorescence [8] [nM] | concentration at which cells completely lost their F-MTX staining [9] [nM] | hypersensitivity compared to CHO AA8 counterpart [10] [fold] | IC50 [11] [nM] | IC50 ([12]; Cricetulus griseus, 72 h, CHO-S R0.15 cells, read-out: 50% inhibition of cell growth (IC50)) [nM] | hypersensitivity of CHO-SR0.15 cells as compared with parental CHO cells ([12]; ratio of 50% inhibitory concentrations) [fold] | IC50 [13] [nM] | concentration resulting in complete loss of F-MTX fluorescence [9] [nM]
CN(Cc1cnc2nc(N)nc(N)c2n1)c1ccc(C(=O)N[C@@H](CCC(=O)O)C(=O)O)cc1 [MTX, methotrexate] | ~3000 | 27 to 29 | 100 | 92.5 | 96.4 | 90-91% | 1000 | did not result in any loss; also recorded: Retention of F-MTX fluorescence | 3 | 30 | 100 | – | – | – | – | – | –
COc1ccc(OC)c(Cc2cnc3nc(N)nc(N)c3c2C)c1 [PTX, piritrexim] | – | – | – | – | – | – | – | – | – | – | – | > 3 | ~8 | – | – | – | –
COc1cc(NCc2ccc3nc(N)nc(N)c3c2C)cc(OC)c1OC [TMQ, Trimetrexate] | – | – | – | – | – | – | 10 | – | – | – | – | > 5 | ~6 | 10 | 8 | ~40 | 10
